Source: ChEMBL document CHEMBL6078655, “Engineering of Novel Analogues That Are More Receptor-Selective and Potent than the Native Hormone, Insulin-like Peptide 5 (INSL5)” (J Med Chem, 2024)
Calls of active or inactive are those of the source. No cut-off for these calls is given here. Where a SMILES comes first, the peptide text is derived from it. Bridges are numbered along the chain shown (N, C = ends). Roman numbers before positions name the chains, in order. [ ]: non-standard residue; d: D form. 1Nal = N[C@@H](Cc1cccc2ccccc12)C(=O)O; Agb = N=C(N)NCC[C@H](N)C(=O)O

Legend:
Relaxin-3 receptor 1 [1] = molecular target: T1, Relaxin-3 receptor 1 (Homo sapiens, UniProt Q9NSD7); assay: Binding affinity to SmBit-tagged RXFP3 (unknown origin) expressed in HEK cells assessed as inhibition constant incubated for 1 hr by NanoBiT assay; type: cell-based
T1 sequence (Q9NSD7 whole entry): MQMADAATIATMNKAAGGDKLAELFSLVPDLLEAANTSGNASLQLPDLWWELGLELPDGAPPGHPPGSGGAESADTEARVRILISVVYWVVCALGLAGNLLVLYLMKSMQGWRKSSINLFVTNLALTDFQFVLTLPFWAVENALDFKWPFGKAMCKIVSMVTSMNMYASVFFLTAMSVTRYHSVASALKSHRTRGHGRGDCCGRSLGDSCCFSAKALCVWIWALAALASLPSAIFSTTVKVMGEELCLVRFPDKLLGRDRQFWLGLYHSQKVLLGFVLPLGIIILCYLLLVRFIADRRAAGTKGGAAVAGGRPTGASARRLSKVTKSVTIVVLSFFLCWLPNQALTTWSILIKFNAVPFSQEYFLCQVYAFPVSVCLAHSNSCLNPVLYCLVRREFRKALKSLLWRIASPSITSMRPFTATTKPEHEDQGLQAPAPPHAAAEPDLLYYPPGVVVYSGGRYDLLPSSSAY

[2] = molecular target: T2, Relaxin-3 receptor 1 (Homo sapiens) (UniProt Q9NSD7); assay: (§1) Agonist activity at RXFP3 (unknown origin) expressed in CHO cells co-transfected with pCRE-galactosidase reporter plasmid assessed as inhibition of forskolin-induced cAMP accumulation incubated for 6 hrs by reporter gene assay; type: functional, cell-based
T2 sequence (whole entry): T1 sequence (Q9NSD7 whole entry)

Relaxin-3 receptor 2 [3] = molecular target: T3, Relaxin-3 receptor 2 (Homo sapiens, UniProt Q8TDU9); assay: Binding affinity to LgBiT-tagged RXFP4 (unknown origin) expressed in HEK cells assessed as inhibition constant incubated for 1 hr by NanoBiT assay; type: cell-based
Relaxin-3 receptor 2 [4] = molecular target: T3, Relaxin-3 receptor 2; assay: Agonist activity at RXFP4 (unknown origin) expressed in CHO cells co-transfected with pCRE-galactosidase reporter plasmid assessed as inhibition of forskolin-induced cAMP accumulation incubated for 6 hrs by reporter gene assay; type: functional, cell-based
[5] = Selectivity index, ratio of Ki for binding affinity to SmBit-tagged RXFP3 (unknown origin) expressed in HEK cells assessed as inhibition constant to Ki for binding affinity to LgBiT-tagged RXFP4 (unknown origin) expressed in HEK cells assessed as inhibition constant; type: cell-based
Relaxin-3 receptor 2 [6] = molecular target: T3, Relaxin-3 receptor 2; assay: Agonist activity at RXFP4 in HEK293T cells assessed as beta-arrestin2 recruitment pretreated with coelenterazine for 10 mins followed by compound addition by BRET assay; type: functional, cell-based
Relaxin-3 receptor 1 [7] = molecular target: T1, Relaxin-3 receptor 1; assay: as §1; type: functional, cell-based
Relaxin-3 receptor 2 [8] = molecular target: T3, Relaxin-3 receptor 2; assay: Antagonist activity at RXFP4 in HEK293T cells assessed as beta-arrestin2 recruitment pretreated with coelenterazine for 10 mins followed by compound addition by BRET assay; type: functional, cell-based

T3 sequence (Q8TDU9 whole entry): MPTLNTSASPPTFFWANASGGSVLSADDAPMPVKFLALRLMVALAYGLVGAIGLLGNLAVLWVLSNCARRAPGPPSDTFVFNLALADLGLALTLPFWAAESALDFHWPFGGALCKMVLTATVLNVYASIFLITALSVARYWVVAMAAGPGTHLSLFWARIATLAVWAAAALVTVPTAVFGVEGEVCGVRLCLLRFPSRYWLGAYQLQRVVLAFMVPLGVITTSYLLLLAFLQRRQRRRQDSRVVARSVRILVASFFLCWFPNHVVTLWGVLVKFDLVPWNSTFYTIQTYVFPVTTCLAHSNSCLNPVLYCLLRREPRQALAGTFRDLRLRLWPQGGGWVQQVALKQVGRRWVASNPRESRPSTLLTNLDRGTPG

Row | Ki (Relaxin-3 receptor 1 [1]; read-out: Ki) | Activity [2] | Ki (Relaxin-3 receptor 2 [3]) | EC50 (Relaxin-3 receptor 2 [4]; read-out: EC50) | Ki (Relaxin-3 receptor 1 [1]; read-out: pKi (converted)) | EC50 (Relaxin-3 receptor 2 [6]) | EC50 (Relaxin-3 receptor 1 [7]; cho, read-out: EC50) | EC50 (Relaxin-3 receptor 1 [7]; read-out: pEC50 (converted)) | EC50 (Relaxin-3 receptor 2 [4]; read-out: pEC50 (converted)) | Activity (Relaxin-3 receptor 2 [8]) | SMILES | Ratio Ki [5]
1 | 426 nM | inactive | 8.71 nM | 8.32 nM | – | – | – | – | – | – | CC[C@H](C)[C@@H]1NC(=O)[C@H](Cc2ccc(O)cc2)NC(=O)[C@H]([C@@H](C)CC)NC(=O)[C@H](C(C)C)NC(=O)[C@H]([C@@H](C)O)NC(=O)[C@H](CCCNC(=N)N)NC(=O)[C@H]([C@@H](C)CC)NC(=O)[C@H](Cc2ccc(O)cc2)NC(=O)[C@H](CCC(=O)O)NC(=O)[C@H](CC(C)C)NC(=O)CNC(=O)[C@@H](N)CSSC[C@H](N)C(=O)N[C@@H]([C@@H](C)O)C(=O)N[C@@H](CC(=O)O)C(=O)NCC(=O)N[C@@H](CS)C(=O)N[C@H](CO)C(=O)N[C@@H](CCSC)C(=O)N[C@@H](CCCCN)C(=O)N[C@@H](CC(=O)O)C(=O)N[C@@H](CC(C)C)C(=O)N[C@@H](CO)C(=O)N[C@@H](C)C(=O)N[C@@H](CC(C)C)C(=O)N[C@H](C(=O)O)CSSC[C@@H](C(=O)N[C@@H](C)C(=O)N[C@@H](CO)C(=O)N[C@@H](CO)C(=O)N[C@@H](CCCNC(=N)N)C(=O)N[C@@H](Cc2c[nH]c3ccccc23)C(=O)O)NC1=O | 49
2 | 195 nM | inactive | 7.76 nM | 7.94 nM | 295 nM | 61.7 nM | – | – | – | – | CC[C@H](C)[C@@H]1NC(=O)[C@H](Cc2ccc(O)cc2)NC(=O)[C@H]([C@@H](C)CC)NC(=O)[C@H](C(C)C)NC(=O)[C@H]([C@@H](C)O)NC(=O)[C@H](CCCNC(=N)N)NC(=O)[C@H]([C@@H](C)CC)NC(=O)[C@H](Cc2ccc(O)cc2)NC(=O)[C@H](CCC(=O)O)NC(=O)[C@H](CC(C)C)NC(=O)CNC(=O)[C@@H](NC(=O)[C@H](CC(C)C)NC(=O)[C@H](CCCNC(=N)N)NC(=O)[C@@H](NC(=O)[C@H](CO)NC(=O)[C@H](CCC(=O)O)NC(=O)[C@@H](N)CCCCN)C(C)C)CSSC[C@H](N)C(=O)N[C@@H]([C@@H](C)O)C(=O)N[C@@H](CC(=O)O)C(=O)NCC(=O)N[C@@H](CS)C(=O)N[C@H](CO)C(=O)N[C@@H](CCSC)C(=O)N[C@@H](CCCCN)C(=O)N[C@@H](CC(=O)O)C(=O)N[C@@H](CC(C)C)C(=O)N[C@@H](CO)C(=O)N[C@@H](C)C(=O)N[C@@H](CC(C)C)C(=O)N[C@H](C(=O)O)CSSC[C@@H](C(=O)N[C@@H](C)C(=O)N[C@@H](CO)C(=O)N[C@@H](CO)C(=O)N[C@@H](CCCNC(=N)N)C(=O)N[C@@H](Cc2c[nH]c3ccccc23)C(=O)O)NC1=O | 38
3 | 2190 nM | – | 1.32 nM | – | – | 40.7 nM | > 10000 nM | > 10000 nM | 9.12 nM | inactive | CC[C@H](C)[C@@H]1NC(=O)[C@H](Cc2ccc(O)cc2)NC(=O)[C@H]([C@@H](C)CC)NC(=O)[C@H](C(C)C)NC(=O)[C@H]([C@@H](C)O)NC(=O)[C@H](CCCNC(=N)N)NC(=O)[C@H]([C@@H](C)CC)NC(=O)[C@H](Cc2ccc(O)cc2)NC(=O)[C@H](CCC(=O)O)NC(=O)[C@H](CC(C)C)NC(=O)CNC(=O)[C@@H](N)CSSC[C@H](N)C(=O)N[C@@H]([C@@H](C)O)C(=O)N[C@@H](CC(=O)O)C(=O)NCC(=O)N[C@@H](C)C(=O)N[C@@H](CO)C(=O)N[C@@H](CCSC)C(=O)N[C@@H](CCCCN)C(=O)N[C@@H](CC(=O)O)C(=O)N[C@@H](CC(C)C)C(=O)N[C@@H](CO)C(=O)N[C@@H](C)C(=O)N[C@@H](CC(C)C)C(=O)N[C@H](C(=O)O)CSSC[C@@H](C(=O)NCC(=O)NCC(=O)N[C@@H](CO)C(=O)N[C@@H](CCNC(=N)N)C(=O)N[C@@H](Cc2cccc3ccccc23)C(=O)O)NC1=O (I: H-CGLEYIRTVIYICGGS[Agb][1Nal]-OH / II: H-CTDGASMKDLSALC-OH; disulfide I:1-II:1, I:13-II:14) | 1660
